From patent US20240156756A1 (Steel Therapeutics, Inc., priority 2021, published 2024)
Where a name gives a salt, the structure may show the parent alone. Read-outs that look alike come from different tables or passages of the source.

Key:
chronic anal fissures = conditions: cream containing 0.5% nifedipine for four weeks; cited from earlier work
[1] = for stability of control sample (active only, no excipient): HPLC impurities

| SMILES | patients experienced healing (chronic anal fissures) [%] | stability of control sample (active only, no excipient) ([1]; T0, both temperatures (RT & 40° C.)) | degradation in any excipient combinations ([1]; T0, both temperatures (RT & 40° C.), major = >5%) | degradation in DEC combinations ([1]; T4 weeks, Benzyl Alcohol and Oleyl alcohol combinations) | major degradation in DEC combinations ([1]; T4 weeks, RT & 40° C., combinations of Transcutol, DMI, and PEG 400) [%] | stability of control sample (active only, no excipient) ([1]; T4 weeks, both temperatures (RT & 40° C.)) |
| --- | --- | --- | --- | --- | --- | --- |
| COC(=O)C1=C(C)NC(C)=C(C(=O)OC)C1c1ccccc1[N+](=O)[O-] [Nifedipine, dimethyl 2,6-dimethyl-4-(2-nitrophenyl)-1,4-dihydropyridine-3,5-dicarboxylate] | 70 |  |  |  |  |  |
| CCN(CC)CC(=O)Nc1c(C)cccc1C [Lidocaine HCl, 2-(diethylamino)-N-(2,6-dimethylphenyl)acetamide;hydrochloride] |  | stable | No major degradation | Slight degradation | > 5 | stable |
